The target of one series is T1, AbCYP82M3 (Atropa belladonna, UniProt A0A3G4RHY7).
T1 construct: gene CYP82M3
The note with it: 1 mM NADPH, pH 7.0, ionic strength 0.05, 20% glycerol, 30 °C.

Series [1] concerns the target T2, AbPYKS (Atropa belladonna, UniProt A0A3G4RHW3).
T2 construct: gene OGAS
The following applies: substrate inhibition constant, 25 mM potassium phosphate pH 8.0, 30 °C.

Series [2] deals with T2, AbPYKS. The following applies: apparent; 0.1 mM malonyl-CoA, 25 mM potassium phosphate pH 8.0, 30 °C.
For series [3], the system named is CC(C)(COP(=O)(O)OP(=O)(O)OC[C@H]1O[C@@H](n2cnc3c(N)ncnc32)[C@H](O)[C@@H]1OP(=O)(O)O)[C@@H](O)C(=O)NCCC(=O)NCCSC(=O)CC(=O)O. Put plainly: purified protein. The note with it: apparent, 0.05 mM N-methyl-Δ^1-pyrrolinium, 25 mM potassium phosphate pH 8.0, 30 °C.

Where two headings read alike, the source gives them in different places.

T2 sequence (A0A3G4RHW3 1-392 limits assumed): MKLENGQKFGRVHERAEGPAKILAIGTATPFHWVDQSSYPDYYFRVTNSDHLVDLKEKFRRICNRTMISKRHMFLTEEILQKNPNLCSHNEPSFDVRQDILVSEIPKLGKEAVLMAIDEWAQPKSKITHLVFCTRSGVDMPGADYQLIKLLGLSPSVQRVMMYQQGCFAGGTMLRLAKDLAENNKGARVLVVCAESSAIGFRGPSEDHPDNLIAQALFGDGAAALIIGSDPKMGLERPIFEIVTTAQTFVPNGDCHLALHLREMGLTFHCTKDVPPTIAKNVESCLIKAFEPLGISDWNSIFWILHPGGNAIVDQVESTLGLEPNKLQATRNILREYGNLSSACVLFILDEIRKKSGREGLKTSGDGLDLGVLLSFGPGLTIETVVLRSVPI
T1 sequence (A0A3G4RHY7 1-519): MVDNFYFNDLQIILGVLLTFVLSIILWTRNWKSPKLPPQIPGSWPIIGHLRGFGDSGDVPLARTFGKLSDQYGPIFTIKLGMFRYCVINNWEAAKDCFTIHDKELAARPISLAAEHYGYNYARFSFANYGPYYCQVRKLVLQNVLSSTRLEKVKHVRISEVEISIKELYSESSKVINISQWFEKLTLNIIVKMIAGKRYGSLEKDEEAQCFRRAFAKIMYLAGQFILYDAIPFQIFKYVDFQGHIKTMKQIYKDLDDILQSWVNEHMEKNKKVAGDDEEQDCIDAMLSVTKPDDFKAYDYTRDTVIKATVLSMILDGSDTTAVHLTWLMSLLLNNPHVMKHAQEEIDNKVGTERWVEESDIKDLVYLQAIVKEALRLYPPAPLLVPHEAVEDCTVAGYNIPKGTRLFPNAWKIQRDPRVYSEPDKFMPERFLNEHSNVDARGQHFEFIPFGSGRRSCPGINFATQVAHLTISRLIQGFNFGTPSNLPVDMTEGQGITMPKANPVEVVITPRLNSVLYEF

In the case of `CN1CCCC1CC(=O)CC(=O)O` (racemic) [compound 5, 4-(1-methyl-2-pyrrolidinyl)-3-oxobutanoic acid], the Michaelis-Menten constant (Km) (in general, the substrate concentration at which the rate is half of its maximum) on AbCYP82M3 came out at 631 ± 26 µM.
With `CC(C)(COP(=O)(O)OP(=O)(O)OC[C@H]1O[C@@H](n2cnc3c(N)ncnc32)[C@H](O)[C@@H]1OP(=O)(O)O)[C@@H](O)C(=O)NCCC(=O)NCCSC(=O)CC(=O)O` [Malonyl-CoA], the “K i /” value at AbPYKS [1] (0.05 mM N-methyl-Δ^1-pyrrolinium) was determined as 280 ± 0.9 µM.
On to `C[N+]1=CCCC1` [compound 4, N-methyl-Δ^1-pyrrolinium], for which the “K i /” value on AbPYKS [1] (0.1 mM malonyl-CoA) came to 103 ± 16 µM. The Michaelis-Menten constant (Km) at AbPYKS [2] amounted to 10 ± 0.6 µM.
Consider AbPYKS (Atropa belladonna), for which, in series [3], the Km turned out to be 12 ± 1 µM; the Vmax (in general, the top rate of the reaction or transport when substrate is in excess) was 13.8 µmol/min/mg; the kcat (in general, the number of substrate molecules converted per active site and unit of time at saturation) is 10 ± 0.1 s⁻¹; the catalytic efficiency (kcat/Km) (commonly the turnover number divided by the Michaelis constant) is 848000 ± 90000 M⁻¹ s⁻¹.

Source of the values: paper PMC6290073, “Tropinone synthesis via an atypical polyketide synthase and P450-mediated cyclization” (Nature Communications, 2018).
